The values that follow are results of earlier work, collected in patent US20150098993A1, “COMPOSITIONS, PROCESS OF PREPARATION OF SAID COMPOSITIONS AND METHOD OF TREATING INFLAMMATORY DISEASES” (priority 2011, published 2015).

Bounds are passed on as bounds.

Data set [1] deals with T1, AT1 receptor (Homo sapiens, UniProt P30556).
T1 sequence (P30556 1-359): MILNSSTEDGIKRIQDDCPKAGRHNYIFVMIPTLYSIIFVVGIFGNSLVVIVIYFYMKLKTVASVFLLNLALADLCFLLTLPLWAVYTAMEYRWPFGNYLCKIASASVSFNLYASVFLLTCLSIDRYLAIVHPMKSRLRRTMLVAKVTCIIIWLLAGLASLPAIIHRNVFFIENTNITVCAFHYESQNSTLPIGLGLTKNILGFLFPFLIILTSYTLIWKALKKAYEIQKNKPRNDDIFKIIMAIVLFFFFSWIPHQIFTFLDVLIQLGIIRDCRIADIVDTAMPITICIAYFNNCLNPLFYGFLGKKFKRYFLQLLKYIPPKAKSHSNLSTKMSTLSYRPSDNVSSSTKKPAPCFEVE
The following applies: AT1 vs AT2 receptor.

For data set [2] the following is noted: in vivo.
Data set [3] relates to mice. The settings on record: in mice.
Assay in data set [4]: not given
The source holds these as a separate data set.

Assay in data set [5]: not given
The source holds these as a separate data set.

Data set [6] has as its system male BALB/c mice. The settings on record: apremilast 5 and 25 mg/kg, dexamethasone 1 mg/kg; daily, oral; McCann.
Data set [7] concerns DBA/1 mice. The following applies: DBA/1 mice immunized with bCII/CFA; Dalbeth.

What is called half-life is the time in which the quantity being followed falls by half. For `CCCc1nc(C(C)(C)O)c(C(=O)OCc2oc(=O)oc2C)n1Cc1ccc(-c2ccccc2-c2nnn[nH]2)cc1` [(5-methyl-2-oxo-2H-1,3-dioxol-4-yl)methyl 4-(2-hydroxypropan-2-yl)-2-propyl-1-({4-[2-(2H-1,2,3,4-tetrazol-5-yl)phenyl]phenyl}methyl)-1H-imidazole-5-carboxylate], the protein binding is 99%. Moreover, the “greater affinity for the AT1 receptor than for the AT2 receptor” value in data set [1] was > 12,500 fold. For the same molecule, the “side effects of therapy” value in data set [2] is “dehydration (dry mouth, excessive thirst, muscle pain or cramps, nausea and vomiting, weakness), dizziness, low blood pressure, and slow or irregular heartbeat”. Moreover, the maximum tolerated dose in data set [3] was 25 mg/kg. In data set [4] (methanol), the solubility in methanol entry was “sparingly soluble”. The solubility in water entry in data set [4] (water) was “practically insoluble”. Further, in data set [5] (in vivo), the T½ is 13 h, the half-life result is “about 13 hours” and the “penetration of red blood cells” value is on record as “does not penetrate red blood cells”.
On to `CCOc1cc([C@@H](CS(C)(=O)=O)N2C(=O)c3cccc(NC(C)=O)c3C2=O)ccc1OC` [Apremilast, (S)-N-{2-[1-(3-Ethoxy-4-methoxyphenyl)-2-methanesulfonylethyl]-1,3-dioxo-2,3-dihydro-1H-isoindol-4-yl}acetamide], for which, in data set [6], the “arthritis severity, as measured by clinical score” value is given as “significantly suppressed arthritis severity”.
As usually defined, the Cmax is the maximum level reached in the sampled fluid or tissue. `O=C(Nc1c(Cl)cncc1Cl)c1ccc(OC(F)F)c(OCC2CC2)c1` [CW304, 3-(cyclopropylmethoxy)-N-(3,5-dichloropyridin-4-yl)-4-(difluoromethoxy)benzamide]: the “side effects of therapy” value in data set [2] was “gastrointestinal (GI) events including nausea, diarrhea, and weight loss”. Also, the maximum tolerated dose in data set [3] is 2 mg/kg. In data set [4] (acetone), the solubility in acetone result is recorded as “freely soluble”. The solubility in ethanol result in data set [4] (ethanol) is reported as “sparingly soluble”. Moreover, in data set [5] (in vivo), the Cmax is 7040 ng/mL, the T½ was 12 to 14 h and the absolute bioavailability is listed as 79%.
What is called Tmax is the time at which the peak concentration occurs. Consider `Cc1ccc(NC(=O)c2ccc(CN3CCN(C)CC3)cc2)cc1Nc1nccc(-c2cccnc2)n1` [Imatinib, N-(4-methyl-3-{[4-(pyridin-3-yl)pyrmidin-2-yl]amino}phenyl)-4-[(4-methylpiperazin-1-yl)methyl]benzamide], for which, in data set [5] (in vivo), the time of peak concentration (Tmax) is 1.2 h and the “maximum levels achieved after dosing (time)” value was 2 to 4 h.
For the molecule `CCCc1nc(C(C)(C)O)c(C(=O)OCc2oc(=O)oc2C)n1Cc1ccc(-c2ccccc2-c2nnn[nH]2)cc1` [Olmesartan medoxomil], the absolute bioavailability result in data set [5] (in vivo) is given as “about 26%”.
For the molecule `CCOC(=O)[C@H](CCc1ccccc1)N[C@@H](C)C(=O)N1Cc2ccccc2C[C@H]1C(=O)O` [Quinapril, (3S)-2-[(2S)-2-{[(2S)-1-ethoxy-1-oxo-4-phenylbutan-2-yl]amino}propanoyl]-1,2,3,4-tetrahydroisoquinoline-3-carboxylic acid], the protein binding result is reported as “about 97%”. Moreover, the “severity of collagen-induced arthritis” value in data set [7] is recorded as “reduced the severity”. In addition, the maximum tolerated dose in data set [3] is on record as 25 mg/kg. In data set [4] (aqueous solvents), the “solubility in aqueous solvents” value was “freely soluble”. Moreover, the “time of peak plasma concentration” value in data set [5] (following oral administration) is listed as “within one hour”. In data set [5] (in vivo), the T½ was 13 h, the extent of absorption result is “at least 60%” and the half-life is 2 h. The “half-life, prolonged terminal phase” value in data set [5] (terminal phase) is 25 h.
